# Experimental data taken from patent US20230277613A1, “Polysaccharide-Rich Bombax Costatum Flower Extract” (priority 2020, published 2023).
# Marks after values point to notes of the source that are not given here.
# What was measured:
# [1] = test system: Corynebacterium striatum (ATCC 6940); assay: In vitro sniff test and viability in reconstituted sweat, C. striatum; assay type: cell-based; parameters: key to Odor (Sniff) 6 h / Odor (Sniff) 24 h: 1. Absent (comparable to 0.1% chlorhexidine positive control); 2. Moderate; 3. Intense (bacteria-specific olfactory signature); conditions: 0.1% (BCP or chlorhexidine digluconate)
# Description: (§1) Staphylococcus epidermidis (ATCC 12228) and Corynebacterium striatum (ATCC 6940) strains were used. Each of these strains has a typical olfactory signature, the result of the metabolism of sweat components: • S. epidermidis: Valeric and propionic acid; • C. striatum: Sulphanyl alcohols. Each bacterial strain was inoculated into a reconstituted sweat solution in the presence of the BCP extract at 0.1%; 0.6% or 2% or 0.1% chlorhexidine digluconate (positive control). After 6 h and 24 h of incubation: The bacterial viability was evaluated by bacterial count expressed in CFU/ml. A sniff test was carried out to determine the olfactory signature qualitatively and semi-quantitatively (intensity of the smell) immediately after opening the vial, the smell was evaluated and scored by a trained operator: • 1. […] Moderate • 3. Intense (bacteria-specific olfactory signature)
# [2] = test system: Staphylococcus epidermidis (ATCC 12228); assay: In vitro sniff test and viability in reconstituted sweat, S. epidermidis; assay type: cell-based; parameters: key to Odor (Sniff) 6 h / Odor (Sniff) 24 h: 1. Absent (comparable to 0.1% chlorhexidine positive control); 2. Moderate; 3. Intense (bacteria-specific olfactory signature); conditions: 0.1% (BCP or chlorhexidine digluconate)
# Description: as §1
# [3] = test system: IL1β (Interleukin 1β); assay: IL1-beta produced by NHKs under PMA stress (ELISA); assay type: cell-based, human
# Description: (§2) Normal Human Keratinocytes (NHK) were treated for 24 hours at 37° C. with the Bombax costatum Polysaccharide extract according to Example 1 (called BCP extract) at 0.01% and/or 0.05% of dry matter (DM) or by Dexamethasone or Indomethacin at 10^-7M (anti-inflammatory reference molecules). The cells were then treated by adding PMA at 10 μg/ml (Phorbol Myristate Acetate, inflammation-inducing agent) for 16 hours at 37° C. At the end of the treatment, the quantities of IL1α (interleukin 1α), PGE2 (Prostaglandin-E2), IL1β (Interleukin 1β), TNFα (Tumor Necrosis Factor α), IL6 (Interleukin 6) and IL8 (Interleukin 8) secreted were measured by the ELISA technique in the culture supernatants.
# (§3) The significance of the results was assessed by a one-way analysis of variance followed by a Tuckey test.
# [4] = test system: TNFα (Tumor Necrosis Factor α); assay: TNF-alpha produced by NHKs under PMA stress (ELISA); assay type: cell-based, human
# Description: as §2, §3
# [5] = test system: IL6 (Interleukin 6); assay: IL6 produced by NHKs under PMA stress (ELISA); assay type: cell-based, human
# Description: as §2, §3
# [6] = test system: IL1α (interleukin 1α); assay: IL1-alpha produced by NHKs under PMA stress (ELISA); assay type: cell-based, human
# Description: as §2, §3
# [7] = test system: IL8 (Interleukin 8); assay: IL8 produced by NHKs under PMA stress (ELISA); assay type: cell-based, human
# Description: as §2, §3
# [8] = test system: PGE2 (Prostaglandin-E2); assay: PGE2 produced by NHKs under PMA stress (ELISA); assay type: cell-based, human
# Description: as §2, §3
# [9] = test system: hBD2; assay: hBD2 gene expression in keratinocytes (real-time quantitative RT-PCR); assay type: cell-based, human; conditions: IL1β 100 ng/ml
# Description: (§4) Normal human epidermal keratinocytes were treated for 24 or 48 hours with BCP extract or IL1β at 100 ng/ml (positive reference). At the end of the treatment, the gene expression of hBD2, hBD3 and TLR2 was analyzed by real-time quantitative RT-PCR.
# [10] = test system: TLR2; assay: TLR2 gene expression in keratinocytes (real-time quantitative RT-PCR); assay type: cell-based, human; conditions: IL1β 100 ng/ml
# Description: as §4
# [11] = test system: hBD2; assay: Intracellular hBD2 production in keratinocytes (ELISA); assay type: cell-based, human; conditions: IL1β 100 ng/ml
# Description: (§5) Normal human epidermal keratinocytes were treated for 24 or 48 hours with BCP extract or IL1β at 100 ng/ml (positive reference). Moreover, the quantities of TLR2 and intracellular hBD2 were measured by ELISA.
# [12] = test system: hBD3; assay: hBD3 gene expression in keratinocytes (real-time quantitative RT-PCR); assay type: cell-based, human; conditions: IL1β 100 ng/ml
# Description: as §4
# [13] = test system: TLR2; assay: TLR2 production in keratinocytes (ELISA); assay type: cell-based, human; conditions: IL1β 100 ng/ml
# Description: as §5
# [14] = Dexamethasone 0.1 μM 24 hours, then PMA 10 μg/ml 16 hours
# [15] = Dexamethasone 0.1 μM, vs PMA 10 μg/ml
molecule,measurement,setting,value
"[H]/N=C(\N/C(=N/[H])NCCCCCCNC(=N)NC(=N)Nc1ccc(Cl)cc1)Nc1ccc(Cl)cc1 [Chlorhexidine, chlorhexidine digluconate]",Viability 6 h,[1]; control 8.51 ± 0.08,0.00 ± 0.00 Log10 CFU/ml
same,Viability 24 h,[1]; control 8.64 ± 0.19,0.00 ± 0.00 Log10 CFU/ml
same,Odor (Sniff) 6 h,[1]; control Moderate,Absent
same,Odor (Sniff) 24 h,[1]; control Moderate,Intense
same,Viability 24 h,[2]; control 8.69 ± 0.09,0.00 ± 0.00 Log10 CFU/ml
same,Viability 6 h,[2]; control 8.91 ± 0.21,0.00 ± 0.00 Log10 CFU/ml
same,Odor (Sniff) 6 h,[2]; control Intense,Absent
same,Odor (Sniff) 24 h,[2]; control Intense,Absent
C[C@@H]1C[C@H]2[C@@H]3CCC4=CC(=O)C=C[C@]4(C)[C@@]3(F)[C@@H](O)C[C@]2(C)[C@@]1(O)C(=O)CO [Dexamethasone],IL1β Average,[3]; [14],34.410 pg/mL
same,IL1β Evolution,[3]; [15],−32%
same,TNFα Average,[4]; [14],16.216 pg/mL
same,TNFα Evolution,[4]; [15],−52%
same,IL6 Average,[5]; [14],2.090 pg/mL
same,IL6 Evolution,[5]; [15],−70%
same,IL1α Average,[6]; [14],230.583 pg/mL
same,IL1α Evolution,[6]; [15],−38%
same,IL8 Average,[7]; [14],4076.675 pg/mL
same,IL8 Evolution,[7]; [15],−59
same,PGE2 Average,[8]; [14],39.000 pg/mL
same,PGE2 Evolution,[8]; [15],−94%
IL1β: IL1β at 100 ng/ml (positive reference),hBD2 RQ,"[9]; 24 or 48 hours, control 1.12",3480.89
same,hBD2 Evolution,[9]; vs Control,×3000 ***
same,TLR2 RQ,"[10]; 24 or 48 hours, control 1.08",3.26
same,TLR2 Evolution,[10]; vs Control,+201% ***
same,hBD2 intracellular protein,"[11]; 24 or 48 hours, control 141.5 ± 15.2",2162.7 ± 51.1 pg/mL
same,hBD2 protein Evolution,[11]; vs Control,+1428% ***
same,hBD3 RQ,"[12]; 24 or 48 hours, control 1.09",9.04
same,hBD3 Evolution,[12]; vs Control,+730% ***
same,TLR2 protein,"[13]; 24 or 48 hours, control 735.9 ± 39.2",913.7 ± 30.5 pg/mL
same,TLR2 protein Evolution,[13]; vs Control,+24% **
